Experimental findings from patent publication US9409037B2, “Enhanced anti-microbial PDT” (Biolitec Pharma Marketing LTD, priority 2010, dated 2016) are described below.

The structures appear in SMILES notation.

The subject of the experiment is Staphylococcus aureus. Description: Antimicrobial PDT killing of bacteria in calf serum in a flow system. As to conditions: 20 μM Safranin O in 99% calf serum; 532 nm laser, fluence rate 30 mW/cm^2, continuous irradiation; three passages, flow rate 10 ml/min. The class given is cell-based. As to the method:
In a separate test a composition comprising Safranin O was added to calf serum (100% serum) solution containing Staphylococcus aureus ([…]), which is a common component of the micro flora of wounds, resulting in a final concentration of 20 μM Safranin O in 99% calf serum. Irradiation was delivered in a flow system corresponding to FIG. 3 B via a light fiber from a laser, Ceralas G2 (Biolitec AG, Germany) operating at 532 nm and using a fluence rate of 30 mW/cm^2.

Consider `Cc1cc2nc3cc(C)c(N)cc3[n+](-c3ccccc3)c2cc1N.[Cl-]` [Safranin O], for which the “percentage of killing of bacteria” value is listed as “about 99.9%”.
